In experiment [1] the target is BTK enzyme (recombinant full-length BTK, hBTK) (Homo sapiens (Human), UniProt Q06187). Kind of experiment: BTK enzymatic activity LANCE TR-FRET assay. Format: biochemical. The note with it: 50 pM hBTK, 25 μM ATP, 2 μM biotin-A5-peptide; compound range 1 μM to 0.017 nM; read-out: BTK binding IC50. For orientation: TR-FRET usually uses a lanthanide donor and a delayed reading to cut background.

Experiment [2] concerns adenosine uptake into HeLa cells. Kind of experiment: [3H]Adenosine uptake assay in HeLa cells. Format: cell-based. The note with it: [3H]adenosine accumulation in HeLa cells, compound range 10 μM to 0.032 nM, read-out: ADU inhibition IC50. Summed up:
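IC50 came from a 4-parameter fit of counts per second over a ten-point, 1:3 titration (final 10 µM down to […]). Compound was applied 30 min at ambient temperature in HBSS/5% FBS before a 500 nM [3H]adenosine solution was added; uptake ran 60 min, read by Cytostar-T proximity scintillation.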

Usually IC50 stands for the point on the concentration scale where inhibition reaches its midpoint.

Each structure is given as a SMILES string. Read-outs that look alike come from different tables or passages of the source.

BTK enzyme (recombinant full-length BTK, hBTK), sequence (Q06187 whole entry): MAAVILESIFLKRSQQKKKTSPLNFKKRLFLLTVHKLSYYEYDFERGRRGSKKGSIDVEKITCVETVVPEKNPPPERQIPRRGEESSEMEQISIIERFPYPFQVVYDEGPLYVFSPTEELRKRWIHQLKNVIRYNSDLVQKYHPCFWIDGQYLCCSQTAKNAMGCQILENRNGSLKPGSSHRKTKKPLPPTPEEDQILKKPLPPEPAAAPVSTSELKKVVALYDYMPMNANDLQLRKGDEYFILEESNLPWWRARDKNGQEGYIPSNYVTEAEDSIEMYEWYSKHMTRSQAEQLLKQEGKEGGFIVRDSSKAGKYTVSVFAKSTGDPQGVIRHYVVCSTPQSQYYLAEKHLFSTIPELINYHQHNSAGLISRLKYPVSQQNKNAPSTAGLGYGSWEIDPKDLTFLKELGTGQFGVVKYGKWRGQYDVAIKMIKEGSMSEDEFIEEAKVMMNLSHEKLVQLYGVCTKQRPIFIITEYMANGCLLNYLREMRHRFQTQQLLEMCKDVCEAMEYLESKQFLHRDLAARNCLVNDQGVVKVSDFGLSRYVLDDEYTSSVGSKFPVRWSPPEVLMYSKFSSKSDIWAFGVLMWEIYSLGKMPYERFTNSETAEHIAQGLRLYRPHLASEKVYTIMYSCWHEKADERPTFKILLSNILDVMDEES

Turning to `Nc1nccn2c([C@@H]3CC[C@H]4CCC(=O)N4C3)nc(-c3ccc([C@@](O)(CO)c4cccc(C(F)(F)F)c4)cc3)c12` [Example 106, (6R,8aS)-6-[8-amino-1-(4-{(1S)-1,2-dihydroxy-1-[3-(trifluoromethyl)phenyl]ethyl}phenyl)imidazo [1,5-a]pyrazin-3-yl]hexahydroindolizin-3(2H)-one], the IC50 in experiment [1] stood at 153 nM; in experiment [2] (Homo sapiens, HeLa), 6970 nM.
Take `Nc1nccn2c([C@@H]3CC[C@H]4CCC(=O)N4C3)nc(-c3ccc([C@](O)(CO)c4cccc(C(F)(F)F)c4)cc3)c12` [Example 107, (6R,8aS)-6-[8-amino-1-(4-{(1R)-1,2-dihydroxy-1-[3-(trifluoromethyl)phenyl]ethyl}phenyl)imidazo [1,5-a]pyrazin-3-yl]hexahydroindolizin-3(2H)-one]: the IC50 in experiment [1] was 939 nM; in experiment [2] (Homo sapiens, HeLa), 530 nM.
Regarding `Nc1nccn2c([C@@H]3CC[C@H]4CCC(=O)N4C3)nc(-c3ccc(C(O)(c4cccc(C(F)(F)F)c4)C(F)F)cc3)c12` (stereo partly drawn) [Example 108, (6R,8aS)-6-[8-amino-1-(4-{2,2-difluoro-1-hydroxy-1-[3-(trifluoromethyl)phenyl]ethyl}phenyl)imidazo [1,5-a]pyrazin-3-yl]hexahydroindolizin-3(2H)-one], the figures for the IC50 in experiment [1] and in experiment [2] were 678 nM and 467 nM, respectively.
`CC(C)(c1cccc([C@@](C)(O)c2ccc(-c3nc([C@@H]4CC[C@H]5CCC(=O)N5C4)n4ccnc(N)c34)cc2)c1)C(F)(F)F` [Example 109, (6R,8aS)-6-[8-amino-1-(4-{(1S)-1-hydroxy-1-[3-(2,2,2-trifluoro-1,1-dimethylethyl)phenyl]ethyl}phenyl)imidazo[1,5-a]pyrazin-3-yl]hexahydroindolizin-3(2H)-one]: the IC50 in experiment [1] is 44.9 nM; in experiment [2] (Homo sapiens, HeLa) it was 892 nM.
Take `CC(C)(c1cccc([C@](C)(O)c2ccc(-c3nc([C@@H]4CC[C@H]5CCC(=O)N5C4)n4ccnc(N)c34)cc2)c1)C(F)(F)F` [Example 110, (6R,8aS)-6-[8-amino-1-(4-{(1R)-1-hydroxy-1-[3-(2,2,2-trifluoro-1,1-dimethylethyl)phenyl]ethyl}phenyl)imidazo[1,5-a]pyrazin-3-yl]hexahydroindolizin-3(2H)-one]: the IC50 in experiment [1] is 0.95 nM; in experiment [2] (Homo sapiens, HeLa) it was 1700 nM.
For `C[C@](O)(c1ccc(-c2nc([C@@H]3CC[C@H]4CCC(=O)N4C3)n3ccnc(N)c23)cc1)c1ccc(C(F)(F)F)s1` [Example 111, (6R,8aS)-6-[8-amino-1-(4-{(1S)-1-hydroxy-1-[5-(trifluoromethyl)thiophen-2-yl]ethyl}phenyl)imidazo [1,5-a]pyrazin-3-yl]hexahydroindolizin-3(2H)-one], the IC50 in experiment [1] came out at 1000 nM; in experiment [2], 722 nM.
Taken in the same sequence, the figures for `Nc1nccn2c([C@@H]3CC[C@H]4CCC(=O)N4C3)nc(-c3ccc(C(O)(c4cccc(C(F)(F)F)c4)C(F)F)cc3)c12` (stereo partly drawn) [Example 112, (6R,8aS)-6-[8-amino-1-(4-{2,2-difluoro-1-hydroxy-1-[3-(trifluoromethyl)phenyl]ethyl}phenyl)imidazo [1,5-a]pyrazin-3-yl]hexahydroindolizin-3(2H)-one] were 5.6 nM and 1870 nM.
Taken in the same sequence, the figures for `C[C@](O)(c1ccc(-c2nc([C@@H]3CC[C@H]4CCC(=O)N4C3)n3ccnc(N)c23)cc1)c1ccc(C(F)(F)F)s1` [Example 113, (6R,8aS)-6-[8-amino-1-(4-{(1S)-1-hydroxy-1-[5-(trifluoromethyl)thiophen-2-yl]ethyl}phenyl)imidazo [1,5-a]pyrazin-3-yl]hexahydroindolizin-3(2H)-one] were 30.9 nM and 2140 nM.
Turning to `CN1CC[C@@H]2CC[C@@H](c3nc(-c4ccc([C@@](C)(O)c5cccc(C(F)(F)F)c5)cc4)c4c(N)nccn34)CN2C1=O` [Example 114, (4aS,7R)-7-[8-amino-1-(4-{(1R)-1-hydroxy-1-[3-(trifluoromethyl)phenyl]ethyl}phenyl)imidazo [1,5-a]pyrazin-3-yl]-2-methyloctahydro-1H-pyrido[1,2-c]pyrimidin-1-one], the IC50 was 0.22 nM in experiment [1] and 888 nM in experiment [2] (Homo sapiens, HeLa).
The like results for `CN1CC[C@@H]2CC[C@@H](c3nc(-c4ccc([C@](C)(O)c5cccc(C(F)(F)F)c5)cc4)c4c(N)nccn34)CN2C1=O` [Example 115, (4aS,7R)-7-[8-amino-1-(4-{(1S)-1-hydroxy-1-[3-(trifluoromethyl)phenyl]ethyl}phenyl)imidazo [1,5-a]pyrazin-3-yl]-2-methyloctahydro-1H-pyrido[1,2-c]pyrimidin-1-one] were, in that order, 51.9 nM and 172 nM.
Taken in the same sequence, the figures for `C[C@](O)(c1ccc(-c2nc([C@@H]3CC[C@H]4CCC(=O)N4C3)n3c(Cl)cnc(N)c23)cc1)c1cccc(C2CC2)c1` [Example 116, (6R,8aS)-6-(8-amino-5-chloro-1-{4-[(1S)-1-(3-cyclopropylphenyl)-1-hydroxyethyl]phenyl}imidazo[1,5-a]pyrazin-3-yl)hexahydroindolizin-3(2H)-one] were 0.87 nM and 458 nM.
Taken in the same sequence, the figures for `C[C@@](O)(c1ccc(-c2nc([C@@H]3CC[C@H]4CCC(=O)N4C3)n3c(Cl)cnc(N)c23)cc1)c1cccc(C2CC2)c1` [Example 117, (6R,8aS)-6-(8-amino-5-chloro-1-{4-[(1R)-1-(3-cyclopropylphenyl)-1-hydroxyethyl]phenyl}imidazo[1,5-a]pyrazin-3-yl)hexahydroindolizin-3(2H)-one] were 0.12 nM and 956 nM.
With `CN1CC[C@H]2CC[C@H](c3nc(-c4ccc([C@@](C)(O)c5cccc(C(F)(F)F)c5)cc4)c4c(N)nccn34)CN2C1=O` [Example 118, (4aR,7S)-7-[8-amino-1-(4-{(1R)-1-hydroxy-1-[3-(trifluoromethyl)phenyl]ethyl}phenyl)imidazo [1,5-a]pyrazin-3-yl]-2-methyloctahydro-1H-pyridol[1,2-c]pyrimidin-1-one], the IC50 came out at 83.2 nM in experiment [1] and 1490 nM in experiment [2] (Homo sapiens, HeLa).
Taken in the same sequence, the figures for `CC(C)N1CC(=O)N2C[C@H](c3nc(-c4ccc([C@@](C)(O)c5cccc(C(F)(F)F)c5)cc4)c4c(N)nccn34)CC[C@H]2C1` [Example 119, (7R,9aS)-7-(8-amino-1-(4-{(1R)-1-hydroxy-1-[3-(trifluoromethyl)phenyl]ethyl}phenyl)imidazo [1,5-a]pyrazin-3-yl]-2-(1-methylethyl)octahydro-4H-pyrido[1,2-a]pyrazin-4-one] were 33.1 nM and 2410 nM.
The like results for `CC(C)N1CC(=O)N2C[C@@H](c3nc(-c4ccc([C@@](C)(O)c5cccc(C(F)(F)F)c5)cc4)c4c(N)nccn34)CC[C@@H]2C1` [Example 120, (7S,9aR)-7-[8-amino-1-(4-{(1R)-1-hydroxy-1-[3-(trifluoromethyl)phenyl]ethyl}phenyl)imidazo [1,5-a]pyrazin-3-yl]-2-(1-methylethyl)octahydro-4H-pyrido[1,2-a]pyrazin-4-one] were, in that order, 5.1 nM and 4670 nM.
The like results for `C[C@@](O)(c1ccc(-c2nc([C@@H]3CC[C@H]4CCC(=O)N4C3)n3c(Cl)cnc(N)c23)cc1)c1cccc(CC(F)(F)F)c1` [Example 121, (6R,8aS)-6-[8-amino-5-chloro-1-(4-{(1R)-1-hydroxy-1-[3-(2,2,2-trifluoroethyl)phenyl]ethyl}phenyl)imidazo[1,5-a]pyrazin-3-yl]hexahydroindolizin-3(2H)-one] were, in that order, 0.18 nM and 1940 nM.
For the molecule `C[C@](O)(c1ccc(-c2nc([C@@H]3CC[C@H]4CCC(=O)N4C3)n3c(Cl)cnc(N)c23)cc1)c1cccc(CC(F)(F)F)c1` [Example 122, (6R,8aS)-6-[8-amino-5-chloro-1-(4-{(1S)-1-hydroxy-1-(3-(2,2,2-trifluoroethyl)phenyl]ethyl}phenyl)imidazo[1,5-a]pyrazin-3-yl]hexahydroindolizin-3(2H)-one], the IC50 in experiment [1] was 2.7 nM; in experiment [2] (Homo sapiens, HeLa), 966 nM.
The like results for `CC(C)(c1cccc([C@@](C)(O)c2ccc(-c3nc([C@@H]4CC[C@H]5CCC(=O)N5C4)n4c(Cl)cnc(N)c34)cc2)c1)C(F)(F)F` [Example 123, (6R,8aS)-6-[8-amino-5-chloro-1-(4-{(1S)-1-hydroxy-1-[3-(2,2,2-trifluoro-1,1-dimethylethyl)phenyl]ethyl}phenyl)imidazo[1,5-a]pyrazin-3-yl]hexahydroindolizin-3(2H)-one] were, in that order, 117 nM and 945 nM.
Taken in the same sequence, the figures for `CC(C)(c1cccc([C@](C)(O)c2ccc(-c3nc([C@@H]4CC[C@H]5CCC(=O)N5C4)n4c(Cl)cnc(N)c34)cc2)c1)C(F)(F)F` [Example 124, (6R,8aS)-6-[8-amino-5-chloro-1-(4-{(1R)-1-hydroxy-1-[3-(2,2,2-trifluoro-1,1-dimethylethyl)phenyl]ethyl}phenyl)imidazo[1,5-a]pyrazin-3-yl]hexahydroindolizin-3(2H)-one] were 1.2 nM and 1450 nM.
Taken in the same sequence, the figures for `Nc1nccn2c([C@@H]3CC[C@H]4CCC(=O)N4C3)nc(-c3ccc(C(O)c4cc(C(F)(F)F)ccc4F)cc3)c12` (stereo partly drawn) [Example 125, (6R,8aS)-6-(8-amino-1-(4-{[2-fluoro-5-(trifluoromethyl)phenyl] (hydroxy)methyl}phenyl)imidazo[1,5-a]pyrazin-3-yl]hexahydroindolizin-3(2H)-one] were 824 nM and 1180 nM.
On to `Nc1ncc(Cl)n2c([C@@H]3CC[C@H]4CCC(=O)N4C3)nc(-c3ccc(C(O)c4cc(C(F)(F)F)ccc4F)cc3)c12` (stereo partly drawn) [Example 126], for which the IC50 in experiment [1] stood at 1000 nM; in experiment [2] (Homo sapiens, HeLa), 1070 nM.
